Laboratory results from patent US20260294906A1, “TREATING PSORIASIS USING A SMALL MOLECULE INHIBITOR OF TUMOR NECROSIS FACTOR ALPHA” (SANOFI, priority 2023, published 2026).
“Also recorded” adds a separate entry of the source.

Tests used:
Format in all cases: in vivo, human
[1] = tested on: patients with mild to moderate psoriasis; test: Clinical response by static Investigator's Global Assessment (sIGA) score, phase 1 placebo-controlled study; conditions: 200 mg BID
Description: A double-blind, randomized, placebo-controlled phase 1 study was carried out in participants with mild to moderate psoriasis. Study participants were randomized to 200 mg twice a day (BID) of Compound 1 or placebo in 2:1 ratio (approximately 24 in the treatment group and 12 in the placebo group). The study comprised an up to 4-week screening period, and a 4-week treatment period with Compound 1 or placebo. An end-of-study visit was carried out 10±3 days after the last investigational medicinal product (IMP) administration.
(§1) Two study interventions were used, Compound 1 and placebo. The Compound 1 intervention comprised 4× tablets of Compound 1 50 mg twice daily, i.e. 200 mg BID, for 4 weeks. The placebo intervention was 4× tablets of placebo twice daily for 4 weeks. Tablets were administered orally.
The interventions were used in two arms of the study. Arm 1 was the experimental arm and it involved participants receiving 200 mg of Compound BID for 4 weeks under fed conditions. Arm 2 was the placebo arm and it involved participants receiving the matching placebo tablets for 4 weeks under fed conditions.
The sIGA employed in this study is a six-point ordinal scale used to assess the global severity of disease over the body as a whole, as measured by the overall degree of induration, scaling and erythema of a subject's psoriatic lesions. For statistical analysis, the scale was assigned scores of 0 to 5, for ‘clear’ to ‘very severe’, respectively.
Scoring was accorded to a subject on a scale of 0 to 5 for each of erythema, induration, and scaling; a mean sIGA score was calculated as the mean average of those individual scores and this was translated into an overall sIGA score (an integer between 0 and 5) as described in the tables below:
The sIGA score was assessed as described herein.

IL-17A = test: Serum levels of biomarker IL-17A (single molecule counting sandwich immunoassay)
Description: The primary objective of the study was to assess the safety, tolerability, and clinical efficacy of Compound 1 at 200 mg BID via oral administration. Also evaluated was the clinical effect of Compound 1 as compared to placebo on the percent change in PASI and TLS scores from baseline to week 2 and week 4. The percent change in PASI score from baseline to week 4 was determined. TLS score was also assessed over the same time period. Also assessed was the effect of Compound 1 on biomarkers of psoriasis. Blood samples collected at predetermined time points were processed to quantify serum levels of biomarkers, including interleukin (IL)-17A, IL-17F, and IL-22 by high sensitivity methods. IL-17A, IL-17F and IL-22 are the main cytokines released by Th17 cells. Plasma levels of Compound 1 were measured to assess pharmacokinetics in the study population.
as §1
Blood samples were processed for analysis of IL-17A, IL-17F and IL-22 in serum samples by high sensitivity methods. Samples were collected according to the schedule of activity described above.
As indicated above, peripheral blood samples collected at predetermined time points were processed to quantify serum levels of biomarkers of psoriasis including IL-17A, IL-17F, and IL-22. Levels of IL-17A and IL-17F were quantified using a single molecule counting sandwich immunoassay (SMCxPro™, Millipore—see also Hwang et al., Methods (2019) 158:69-76). Levels of IL-22 were quantified using a single-molecule array ELISA (SIMOA™, Myriad RBM—see also Rissin et al., Anal Chem (2011) 83(6):2279-2285). Statistical analysis was based on geometric mean ratio to baseline; a two-sample t-test at significance alpha level of 5% was used for calculation of the p-values.

[2] = tested on: participants with mild to moderate psoriasis; test: 12-lead ECG (QTcF) in the clinical study
Description: as §1
The following electrocardiogram data were recorded: • Standard 12-lead ECGs (safety ECGs) were recorded after at least 10 minutes in supine position using an electrocardiographic device. The electrodes were positioned at the same place for each ECG recording throughout the study (e.g., attachment sites of the leads were visualized on a transparent paper). • Triplicate ECGs were recorded within 5 minutes with at least 1 min between 2 replicates for all ECG. • Each ECG consisted of a 10-second recording of the 12 leads simultaneously, leading to: • A single 12-lead ECG (50 mm/s, 10 mm/mV) printout with heart rate, PR, QRS, QT, QTc automatic correction evaluation (by the ECG device), including date, time, and number of the participant, signature of the research physician, and at least 3 complexes for each lead. The Investigator's medical opinion and automatic values were recorded in the eCRF. This printout was retained at the site. A second printout was performed also, if needed. • A digital storage that enables eventual further reading by an ECG central laboratory: each digital file will be identified by theoretical time (day and time Dxx Txx Hxx), real date and real time (recorder time), Sponsor study code, participant number (i.e., 3 digits), and site and country numbers, if relevant. The digital recording, data storage, and transmission (whenever requested) need to comply with all applicable regulatory requirements (i.e., FDA 21 code of federal regulations [CFR], Part 11).
For AESI in this study, the Sponsor was to be informed immediately (i.e., within 24 hours), as per SAE notification guidelines, even if a seriousness criterion was not met, using the corresponding screens in the eCRF. • ALT increased >3×ULN. • QT prolongation (QTcF≥500 milli seconds [ms]) and/or a delta QTc change from baseline>60 ms (12-lead ECG). In the event of prolongation of QTc interval (automatic measurement)≥500 ms, confirmed by a manual reading by the Investigator or a physician delegated by the Investigator using the Fridericia formula for correcting QT, the participant was placed under supervision in a specialized setting. Investigational medicinal product administration was stopped, and appropriate blood samples collected. Subsequent ECG monitoring of the participant was then performed on a regular and clinically responsible basis until the QTc interval returned to a safe value as determined by the Investigator in agreement with the Sponsor. • Photosensitivity (Grade 2 and above AE due to sun exposure). • Pregnancy. • Symptomatic overdose. • An overdose (accidental or intentional) with the IMP is an event suspected by the Investigator or spontaneously notified by the participant (not based on systematic pills count) and defined as at least twice the intended dose within the intended therapeutic interval, adjusted according to the tested drug.

## CN1C(=O)c2cccc(OC(F)F)c2[C@H]2C[C@@H]1c1nc3ccc(-c4cnc(C5(N)CCC5)nc4)cc3n12 [Compound 1, (7R,14R)-11-[2-(1-aminocyclobutyl)pyrimidin-5-yl]-1-(difluoromethoxy)-6-methyl-6,7-dihydro-7,14-methanobenzimidazo[1,2-b][2,5]benzodiazocin-5(14H)-one]
[1]; compared with placebo
  change in sIGA score (in words): clinically important change in sIGA score after 4 weeks of treatment; also recorded: a higher percentage of patients receiving Compound 1 improved from ‘moderate’ disease at baseline, to ‘mild’ or ‘almost clear’ at week 2 and week 4
[1]; week 2
  % of subjects with no change in sIGA from baseline: 68.0%
  % of subjects with sIGA change from baseline of −1: 32.0%
  Number of subjects with no change in sIGA from baseline: 17
  Number of subjects with sIGA change from baseline of +1: 0
  Number of subjects with sIGA change from baseline of −1: 8
[1]; week 4
  % of subjects with no change in sIGA from baseline: 38.5%
  % of subjects with sIGA change from baseline of +1: 4.2%
  Number of subjects with no change in sIGA from baseline: 9
  Number of subjects with sIGA change from baseline of +1: 1
  Number of subjects with sIGA change from baseline of −1: 14
[1]; week 4, placebo 0%
  % of subjects with sIGA change from baseline of −1 (improvement by at least 1 severity level): 58.3%
IL-17A; after treatment for 4 weeks
  Serum level of IL-17A (in words): substantially decreased
IL-17A; baseline (before treatment)
  Serum level of IL-17A, geometric mean (geometric SE): 0.62 (1.15) pg/mL
IL-17A; week 2, 200 mg BID
  Serum level of IL-17A, geometric mean (geometric SE): 0.56 (1.13) pg/mL
IL-17A; week 4, 200 mg BID
  Serum level of IL-17A, geometric mean (geometric SE): 0.45 (1.14) pg/mL
[2]; 200 mg BID
  QTcF change from baseline >60 msec and/or QTcF>480 msec: no QTcF change from baseline >60 msec and/or QTcF>480 msec
[2]; 200 mg BID, Day 8, baseline 426 msec
  QTcF change from baseline, one participant: 33 ms
[2]; 200 mg BID, one single occasion on Day 8
  Number of participants with QTcF>450 msec: One
[2]; 200 mg BID, one single occasion on Day 8, baseline 426 msec
  QTcF, one participant: 459 ms
[2]; 4-week clinical trial
  risk of QTc prolongation / impact on cardiac parameters (in words): No indication for risks on QTc prolongation was observed; also recorded: neither was any significant impact on cardiac parameters (e.g., QTcF interval)
